Here are results for one compound from patent publication US12600729B2, “New-type benzazepine fused ring derivative” (SHANGHAI JEYOU PHARMACEUTICAL CO., LTD., priority 2021, dated 2026).

Like-named read-outs stand apart in the source and are kept apart here.

For data set [1], the target named is T1, human vasopressin receptor V2R (Homo sapiens, UniProt P30518).
T1 construct: host or cells: HeLa (lentivirus infection, puromycin selection)
Briefly: Inhibition of vasopressin-induced activation of V2R (cAMP HTRF in HeLa-V2R cells). In kind it is cell-based. The note with it: AVP 2.25 nM, read-out: IC50, inhibition of cAMP increase in human cervical cancer cells (Human V2R Hela-Stable cell line OE2). Here is the method: HeLa-V2R cells were incubated with DMEM medium supplemented with 10% fetal bovine serum under the condition of 37° C. and 5% CO2, and the medium was added with 2 μg/mL puromycin to continuously screen cells expressing V2R. On the day of the experiment, the cells were digested with trypsin, washed twice with the stimulation buffer in the cAMP-GS HIRANGE kit, resuspended, and counted to prepare 1.6×10^6 cells/mL, and IBMX was added until a final concentration of 0.5 mM. 5 μL of cell suspension/well was transferred to a 384-well plate. To the corresponding wells were added 2.5 μL of various concentrations of the test compounds (3-fold dilution from 10 μM, 10 concentration gradients) or DMSO (minimum value Min, maximum value Max as a control), respectively. […]. At the same time, cAMP standard samples (3-fold dilution from 5.6 μM, 10 concentration points) were prepared, and 10 μL of cAMP standard samples were transferred to corresponding wells of a 384-well plate. The cAMP-d2 fluorescence and anti-cAMP antibody probes provided in the kit were 20-fold diluted by the lysis buffer in the cAMP-GS HIRANGE kit. To each well of a 384-well plate was sequentially added 5 μL of each diluted reagent. The above mixture in each well was mixed well, centrifuged briefly, incubated at 25° C. for 2 hours, and tested. The sample was tested by the HTRF method with the Envision microplate reader to determine the fluorescence intensity at 615 nm and 665 nm. Each test sample was tested in duplicate, with 32 replicates for both Min and Max, respectively.
The fluorescence intensity ratio FI665/615 at the wavelength of 665 nm and 615 nm of the samples in each well was calculated. The logarithm of the concentration of the standard was taken as X, and FI665/615×1000 as the Y value, and the standard curve was obtained by fitting the “log(inhibitor) vs response-variable slope (four parameters)” model in Prism 8.0 software. FI665/615×1000 of the test well was taken as the Y value, and the cAMP concentration corresponding to each sample was calculated in the Prism 8.0 software according to the above standard curve.
% Inhibition (inhibition percentage) calculation formula is as follows: % inhibition=(Cmax−Ccmpd)/(Cmax−Cmin)×100
wherein Cmax is the average calculated value of cAMP concentration in all maximum wells; Cmin is the average calculated value of cAMP concentration in all minimum wells; Ccmpd is the calculated value of cAMP concentration of the test compound.
% Inhibition (inhibition percentage) was taken as the Y value, and the logarithmic value of the compound concentration was taken as the X value, and the IC50 was calculated by nonlinear regression with “log(inhibitor) vs response-variable slope (four parameters)” model in Prism 8.0 software, wherein Y=Bottom+(Top−Bottom)/(1+10^((Log IC50−X)×Hill Slope)).
Background: Time-resolved FRET reads energy transfer from a long-lived donor to a nearby acceptor.

Data set [2] in a line: In vivo pharmacokinetics in mice, oral administration. The note with it: male CD1 mice, oral 10 mg/kg. The procedure: In this experimental example, in vivo pharmacokinetic evaluations were performed on mice by intravenous injection and oral administration.
Experimental methods and conditions: Male CD1 mice, 6 to 8 weeks old with free access to food and water, were administered by oral gavage with a dosage of 10 mg/kg (solvent 5% DMSO/10% Solutol/85% Saline). 15 minutes, 30 minutes, 1 hour, 2 hours, 4 hours, 8 hours, 10 hours, 24 hours after administration, blood samples were collected. Each sample was collected in a volume of 150 μL and anticoagulated with heparin sodium, placed on ice after collection, and centrifuged within 1 hour to separate the test plasma. The plasma concentration in plasma was tested by liquid chromatography-tandem mass spectrometry (LC/MS/MS), and pharmacokinetic parameters were calculated using Phoenix WinNonlin software via the measured concentration.

Another data set concerns the target T2, human V2R (Homo sapiens, UniProt P30518).
T2 construct: purchased Perkinelmer, USA
Kind of data set: Competitive isotope ligand binding, V2 receptor. Here is the method: The cells with high expression of human V1a receptor were amplified, collected, washed twice with PBS, resuspended with PBS containing a protease inhibitor, homogenized with a homogenizer at 15000 r/min to break the cells, and centrifuged at 4° C. and 3000 r/min for 15 minutes. The supernatant was collected, centrifuged at 20,000 r/min at 4° C. for 45 minutes. Then the supernatant was discarded to obtain a cell membrane precipitation. Buffer was added to resuspend to measure the protein concentration, aliquoted, and stored at −80° C. The cell membranes of highly expressed human V1b and V2 receptors were purchased from Perkinelmer, USA.
The stock solution of the test compound and that of the positive control were diluted to 1 mM (10-fold dilution) and 0.1 mM (100-fold dilution) with DMSO, respectively, and then sequentially subjected to a four-fold dilution with DMSO to the tenth point.
Cell membranes overexpressing human receptors were prepared with assay buffer to 5 mg/mL.
• 1. 1 μL of the compound was aspirated from the dilution plate into each well of the 96-well assay plate (the concentration of the test compound in the reaction would be diluted 100-fold). To the control well was added 1 μL of DMSO. • 2. 10 mL of membrane solution containing 5 μg/μL was prepared. • 3. To the compound assay plate was added the membrane solution from step 2 with a pipette, and each well was added with 89 μL of the membrane solution. • 4. […] The configured test plate was placed at 30° C. and incubated for 60 minutes. • 6. The membrane complexes were collected into 0.5% PEI pre-coated GF/B plate with Cell Harvester, washed 3 times with 2 mL of pre-cooled elution buffer at 4° C., and dried at 37° C. for 2 hours. • 7.
Y=Bottom+(Top−Bottom)/(1+10^((X−Log IC50))), wherein: Y is the reading value of the liquid scintillation counter, and X is the logarithmic value of the compound concentration.

T2 sequence (P30518 whole entry): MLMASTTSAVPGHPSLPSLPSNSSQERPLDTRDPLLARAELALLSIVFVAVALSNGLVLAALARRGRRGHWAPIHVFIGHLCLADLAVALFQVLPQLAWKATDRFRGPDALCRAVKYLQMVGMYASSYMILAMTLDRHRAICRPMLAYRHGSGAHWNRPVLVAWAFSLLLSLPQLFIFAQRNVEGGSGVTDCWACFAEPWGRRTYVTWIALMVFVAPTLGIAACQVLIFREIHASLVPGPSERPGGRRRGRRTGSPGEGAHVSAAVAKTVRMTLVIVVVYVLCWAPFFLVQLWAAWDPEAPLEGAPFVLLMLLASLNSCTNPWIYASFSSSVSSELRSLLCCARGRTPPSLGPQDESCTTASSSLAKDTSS
T1 sequence (P30518 whole entry): as above

In the case of `O=C(Nc1ccc(C(=O)N2CC[C@@H]3CCN[C@H]3c3cc(Cl)ccc32)cn1)c1ccccc1C(F)(F)F` (single isomer, unassigned) [Compound 10A], the IC50 in data set [1] is 31 nM. Besides, in data set [2], the F is given as 73.34%. In data set [2] (mouse, plasma), this compound gave an area under the curve AUC(0-inf) of 2030 ng·h/mL, a peak concentration (Cmax) of 833 ng/mL and a half-life of 4.44 h. Also, at human V2R, the “binding affinity for V2R compared with V1a (V1a/V2 selectivity)” value was “higher than that for V1a”. Further, the Ki on human V2R (Binding affinity V2R, N = 1, isotope-labeled vasopressin 1 nM, experiment 1) was 2.1 nM. The same compound displayed a Ki at human V2R (Binding affinity V2R, N = 2, isotope-labeled vasopressin 1 nM, experiment 2) of 2.76 nM. Moreover, the Ki on human V2R (isotope-labeled vasopressin 1 nM, mean ± spread, read-out: Binding affinity V2R, mean of the two experiments) came to 2.4 ± 0.3 nM.

As a reminder, the IC50 is the midpoint of a concentration-inhibition curve. A word on the AUC(0-inf): it is the area under the concentration-time curve extrapolated to infinity. A word on the Cmax: it is the highest concentration seen after dosing. Broadly, the half-life is the time in which the quantity being followed falls by half. Read a low half-life as fast loss.
